{
  "source": "patent US12599584B2",
  "about": "“Indoline derivatives, compositions comprising them and uses thereof” (Yissum Research Development Company of The Hebrew …, priority 2016, dated 2026)",
  "tested_on": "Caspase 3",
  "assay": "Caspase 3 activity in RAW macrophage 264.7 cells exposed to H2O2",
  "type": "cell-based, mouse",
  "conditions": "1×10^−13M",
  "method": "Oxidative stress can cause apoptosis, a form of cell suicide mediated by a cascade of proteolytic enzymes called caspases (cysteinyl aspartate-specific proteases). Caspase 3 is one of a number of effector caspases. Its activity was measured by means of a luminescent assay (Caspase-Glo 3/7 Assay Promega Ltd). […] The medium was aspirated 90 min later, 100 μL of DMEM was added to each well and the plates kept in an incubator overnight. Caspase-GloR Reagent (100 μL) was added to each well and the contents gently mixed using a plate shaker at 300-500 rpm for 30 sec. The plates were left at room temperature for 30 min and then luminescence of each sample was measured in a plate-reading luminometer (Cytation 3).",
  "data": [
    {"molecule": "NCCCN1CCc2ccccc21", "note": "[AN1264, di-p-Toluenesulfonate]", "values": [
      {"measurement": "Reduction in caspase 3 activity compared with the other compounds", "value": "less reduction in caspase 3 activity than the other compounds"}
    ]},
    {"molecule": "COC(=O)CCN1CCc2ccc(OCc3ccccc3)cc21.Cc1ccc(S(=O)(=O)O)cc1", "note": "[AN1279, Methyl 3-(6-(Benzyloxy)indolin-1-yl)propanoate p-Toluenesulfonate]", "values": [
      {"measurement": "Reduction in caspase 3 activity compared with the other compounds", "value": "less reduction in caspase 3 activity than the other compounds"}
    ]}
  ]
}
